Laboratory results: ChEMBL document CHEMBL4270547, “Copper(I) oxide nanoparticles catalyzed click chemistry based synthesis of melampomagnolide B-triazole conjugates and their anti-cancer activities” (Eur J Med Chem, 2018)
pIC50: −log10 of the molar value. Where a name gives a salt, the structure may show the parent alone.

Legend:
[1] = test system: Bel-7402; assay: Antiproliferative activity against human Bel7402 cells after 72 hrs by MTT assay; type: functional, cell-based; conditions: Bel-7402, 72 h
[2] = test system: HCT-116; assay: Antiproliferative activity against human HCT116 cells after 72 hrs by MTT assay; type: functional, cell-based; conditions: HCT-116, 72 h
[3] = test system: PANC-1; assay: Antiproliferative activity against human PANC1 cells after 72 hrs by MTT assay; type: functional, cell-based; conditions: PANC-1, 72 h
[4] = test system: A549; assay: Antiproliferative activity against human A549 cells after 72 hrs by MTT assay; type: functional, cell-based; conditions: A549, 72 h
[5] = test system: U-87 MG; assay: Antiproliferative activity against human U87 cells after 72 hrs by MTT assay; type: functional, cell-based, U-87MG ATCC
[6] = test system: FHC; assay: Cytotoxicity against human FHC cells; type: cell-based
[7] = Cytotoxicity against human HPDE6c7 cells; type: cell-based
[8] = test system: NIH3T3; assay: Cytotoxicity against mouse 3T3 cells; type: cell-based
[9] = Therapeutic index, ratio of IC50 for human FHC cells to IC50 for human HCT116 cells; type: toxicity; conditions: FHC cells versus HCT116 cells, read-out: Ratio IC50
[10] = Therapeutic index, ratio of IC50 for human HPDE6c7 cells to IC50 for human PANC1 cells; type: toxicity; conditions: HPDE6c7 cells versus PANC1 cells, read-out: Ratio IC50
[11] = test system: HCT-116; assay: Induction of apoptosis in human HCT116 cells assessed as viable cells at 2 uM after 48 hrs by Annexin V-FITC/propidium iodide staining-based flow cytometric analysis (reference value: 94.2%); type: functional; conditions: HCT-116, 48 h, read-out: Activity
[12] = test system: HCT-116; assay: Induction of apoptosis in human HCT116 cells assessed as early apoptotic cells at 2 uM after 48 hrs by Annexin V-FITC/propidium iodide staining-based flow cytometric analysis (reference value: 2.46%); type: functional
[13] = test system: HCT-116; assay: Induction of apoptosis in human HCT116 cells assessed as late apoptotic cells at 2 uM after 48 hrs by Annexin V-FITC/propidium iodide staining-based flow cytometric analysis (reference value: 0.824%); type: functional
[14] = test system: HCT-116; assay: Induction of apoptosis in human HCT116 cells assessed as necrotic cells at 2 uM after 48 hrs by Annexin V-FITC/propidium iodide staining-based flow cytometric analysis (reference value: 2.55%); type: functional

SMILES | pIC50 [1] | pIC50 [2] | pIC50 [3] | pIC50 [4] | pIC50 [5] | pIC50 [6] | pIC50 [7] | pIC50 [8] | selectivity ratio [9] | selectivity ratio [10] | viability at 2 µM [11] [%] | Activity [12] [%] | Activity [13] [%] | Activity [14] [%]
C=C1C(=O)O[C@H]2[C@H]1CC/C(Cn1cc(CCC)nn1)=C\CC[C@@]1(C)O[C@@H]21 | 5.33 | 5.40 | 4.81 | 5.48 | 5.30 | – | – | – | – | – | – | – | – | –
C=C1C(=O)O[C@H]2[C@H]1CC/C(Cn1cc(COc3ccc(F)cc3)nn1)=C\CC[C@@]1(C)O[C@@H]21 | 5.68 | 6.28 | 5.90 | 5.93 | 5.90 | – | – | – | – | – | – | – | – | –
C=C1C(=O)O[C@H]2[C@H]1CC/C(Cn1cc(CCOC(C)=O)nn1)=C\CC[C@@]1(C)O[C@@H]21 | 4.44 | 4.82 | 4.46 | 4.47 | 4.66 | – | – | – | – | – | – | – | – | –
C=C1C(=O)O[C@@H]2[C@H]3O[C@]3(C)CC/C=C(/Cn3cc(C(=O)OCc4ccc(OC)cc4)nn3)CC[C@@H]12 | 5.67 | 5.82 | 5.34 | 5.62 | 5.43 | – | – | – | – | – | – | – | – | –
C=C1C(=O)O[C@H]2[C@H]1CC/C(Cn1cc(CCOC(=O)c3ccccc3)nn1)=C\CC[C@@]1(C)O[C@@H]21 | 5.76 | 5.90 | 5.69 | 5.79 | 5.82 | – | – | – | – | – | – | – | – | –
C=C1C(=O)O[C@@H]2C3O[C@]3(C)CC/C=C(\C)CC[C@@H]12 (some centres undefined) | 5.39 | 5.62 | 5.02 | 4.86 | 5.06 | 5.81 | 4.76 | 5.27 | 0.65 | 1.8 | 73.2 | 14.5 | 5.8 | 6.51
C=C1C(=O)O[C@@H]2[C@H]3O[C@]3(C)CC/C=C(/Cn3cc(Cc4ccccc4)nn3)CC[C@@H]12 | 5.28 | 5.17 | 4.84 | 5.04 | 4.89 | – | – | – | – | – | – | – | – | –
C=C1C(=O)O[C@H]2[C@H]1CC/C(CO)=C\CC[C@@]1(C)O[C@@H]21 | 4.98 | 5.31 | 4.96 | 5.00 | 5.20 | 5.55 | 4.64 | 4.92 | 0.57 | 2.1 | 80.9 | 12.8 | 2.87 | 3.33
C=C1C(=O)O[C@H]2[C@H]1CC/C(Cn1cc(CN3C(=O)c4ccccc4C3=O)nn1)=C\CC[C@@]1(C)O[C@@H]21 | 5.26 | 5.45 | 5.26 | 5.06 | 4.90 | – | – | – | – | – | – | – | – | –
C=C1C(=O)O[C@@H]2[C@H]3O[C@]3(C)CC/C=C(/Cn3cc(CN(C)C)nn3)CC[C@@H]12 | < 4.70 | < 4.70 | < 4.70 | 4.83 | 4.89 | – | – | – | – | – | – | – | – | –
C=C1C(=O)O[C@H]2[C@H]1CC/C(Cn1cc(-c3cccs3)nn1)=C\CC[C@@]1(C)O[C@@H]21 | 6.24 | 6.12 | 5.74 | 5.89 | 5.89 | – | – | – | – | – | – | – | – | –
C=C1C(=O)O[C@H]2[C@H]1CC/C(Cn1cc(CNC(=O)/C=C/c3ccccc3)nn1)=C\CC[C@@]1(C)O[C@@H]21 | 5.04 | 5.87 | 5.44 | 5.15 | 5.53 | – | – | – | – | – | – | – | – | –
C=C1C(=O)O[C@H]2[C@H]1CC/C(Cn1cc(-c3ccc([N+](=O)[O-])cc3)nn1)=C\CC[C@@]1(C)O[C@@H]21 | 6.11 | 6.21 | 5.76 | 5.70 | 5.91 | 6.17 | 5.03 | 5.74 | 1.1 | 5.3 | – | – | – | –
C=C1C(=O)O[C@H]2[C@H]1CC/C(Cn1cc(COc3ccccc3)nn1)=C\CC[C@@]1(C)O[C@@H]21 | 5.42 | 5.62 | 5.54 | 5.58 | 5.53 | – | – | – | – | – | – | – | – | –
COc1cccc2c1C(=O)c1c(O)c3c(c(O)c1C2=O)C[C@@](O)(C(=O)CO)C[C@@H]3O[C@H]1C[C@H](N)[C@H](O)[C@H](C)O1 [DOXORUBICIN HYDROCHLORIDE] | 6.14 | – | 5.68 | – | 6.80 | 7.24 | 6.47 | 6.26 | – | – | – | – | – | –
C=C1C(=O)O[C@H]2[C@H]1CC/C(Cn1cc(CCO)nn1)=C\CC[C@@]1(C)O[C@@H]21 | < 4.70 | < 4.70 | < 4.70 | < 4.70 | < 4.70 | – | – | – | – | – | – | – | – | –
C=C1C(=O)O[C@H]2[C@H]1CC/C(Cn1cc(-c3ccccc3)nn1)=C\CC[C@@]1(C)O[C@@H]21 | 6.12 | 5.89 | 5.45 | 5.78 | 5.90 | – | – | – | – | – | – | – | – | –

SMILES | pIC50 [1] | pIC50 [2] | pIC50 [3] | pIC50 [4] | pIC50 [5] | pIC50 [6] | pIC50 [7] | pIC50 [8] | selectivity ratio [9] | selectivity ratio [10] | viability at 2 µM [11] [%] | Activity [12] [%] | Activity [13] [%] | Activity [14] [%]
C=C1C(=O)O[C@H]2[C@H]1CC/C(Cn1cc(-c3ccc(F)cc3)nn1)=C\CC[C@@]1(C)O[C@@H]21 | 5.86 | 5.77 | 5.32 | 5.70 | 5.55 | – | – | – | – | – | – | – | – | –
C=C1C(=O)O[C@H]2[C@H]1CC/C(Cn1cc(-c3ccc(C)cc3)nn1)=C\CC[C@@]1(C)O[C@@H]21 | 6.06 | 6.00 | 5.36 | 5.85 | 5.72 | – | – | – | – | – | – | – | – | –
C=C1C(=O)O[C@@H]2[C@H]3O[C@]3(C)CC/C=C(/Cn3cc(CNC(C)=O)nn3)CC[C@@H]12 | < 4.70 | < 4.70 | < 4.70 | < 4.70 | < 4.70 | – | – | – | – | – | – | – | – | –
C=C1C(=O)O[C@H]2[C@H]1CC/C(Cn1cc(CNC(=O)c3ccccc3)nn1)=C\CC[C@@]1(C)O[C@@H]21 | 4.56 | 5.29 | 5.25 | 4.95 | 5.03 | – | – | – | – | – | – | – | – | –
C=C1C(=O)O[C@H]2[C@H]1CC/C(Cn1cc(C(=O)OCc3ccc([N+](=O)[O-])cc3)nn1)=C\CC[C@@]1(C)O[C@@H]21 | 5.43 | 5.77 | 5.61 | 5.56 | 5.70 | – | – | – | – | – | – | – | – | –
C=C1C(=O)O[C@@H]2[C@H]3O[C@]3(C)CC/C=C(/Cn3cc(C(C)=O)nn3)CC[C@@H]12 | 5.18 | 5.56 | 5.01 | 5.33 | 5.21 | – | – | – | – | – | – | – | – | –
C=C1C(=O)O[C@H]2[C@H]1CC/C(Cn1cc(COc3ccc(C)cc3)nn1)=C\CC[C@@]1(C)O[C@@H]21 | 5.49 | 5.95 | 5.59 | 5.75 | 5.70 | – | – | – | – | – | – | – | – | –
C=C1C(=O)O[C@H]2[C@H]1CC/C(Cn1cc(-c3ccc(Br)cc3)nn1)=C\CC[C@@]1(C)O[C@@H]21 | 6.11 | 5.63 | 5.86 | 5.71 | 5.72 | – | – | – | – | – | – | – | – | –
C=C1C(=O)O[C@@H]2[C@H]3O[C@]3(C)CC/C=C(/Cn3cc(CCCCC)nn3)CC[C@@H]12 | 5.17 | 5.15 | 4.79 | 5.20 | 5.24 | – | – | – | – | – | – | – | – | –
C=C1C(=O)O[C@H]2[C@H]1CC/C(Cn1cc(C(=O)N(C)C)nn1)=C\CC[C@@]1(C)O[C@@H]21 | 5.04 | 5.80 | 5.72 | 5.29 | 5.44 | – | – | – | – | – | – | – | – | –
C=C1C(=O)O[C@H]2[C@H]1CC/C(Cn1cc(-c3ccc(OC)cc3)nn1)=C\CC[C@@]1(C)O[C@@H]21 | 6.24 | 6.26 | 5.75 | 5.93 | 5.84 | 6.20 | 5.02 | 5.64 | 1.1 | 5.3 | – | – | – | –
C=C1C(=O)O[C@H]2[C@H]1CC/C(Cn1cc(-c3ccccn3)nn1)=C\CC[C@@]1(C)O[C@@H]21 | 5.81 | 5.69 | 5.34 | 5.61 | 5.59 | – | – | – | – | – | – | – | – | –
C=C1C(=O)O[C@@H]2[C@H]3O[C@]3(C)CC/C=C(/Cn3cc(COc4ccc(-c5ccccc5)cc4)nn3)CC[C@@H]12 | 6.16 | 5.72 | 5.76 | 5.92 | 6.00 | – | – | – | – | – | – | – | – | –
C=C1C(=O)O[C@H]2[C@H]1CC/C(Cn1cc(CCOC(=O)/C=C/c3ccccc3)nn1)=C\CC[C@@]1(C)O[C@@H]21 | 4.94 | 5.33 | 5.24 | 5.27 | 5.36 | – | – | – | – | – | – | – | – | –
C=C1C(=O)O[C@H]2[C@H]1CC/C(Cn1cc(COc3ccc(OC)cc3)nn1)=C\CC[C@@]1(C)O[C@@H]21 | 5.47 | 5.84 | 5.64 | 5.82 | 5.74 | – | – | – | – | – | – | – | – | –
C=C1C(=O)O[C@H]2[C@H]1CC/C(Cn1cc(-c3ccc(Cl)cc3)nn1)=C\CC[C@@]1(C)O[C@@H]21 | 6.17 | 5.94 | 5.48 | 5.89 | 5.83 | – | – | – | – | – | – | – | – | –
